Like-named read-outs stand apart in the source and are kept apart here.
Target: T1, Chk1 (Homo sapiens, UniProt O14757)
T1 construct: purchased Upstate Biotechnology
T1 sequence (O14757 1-476): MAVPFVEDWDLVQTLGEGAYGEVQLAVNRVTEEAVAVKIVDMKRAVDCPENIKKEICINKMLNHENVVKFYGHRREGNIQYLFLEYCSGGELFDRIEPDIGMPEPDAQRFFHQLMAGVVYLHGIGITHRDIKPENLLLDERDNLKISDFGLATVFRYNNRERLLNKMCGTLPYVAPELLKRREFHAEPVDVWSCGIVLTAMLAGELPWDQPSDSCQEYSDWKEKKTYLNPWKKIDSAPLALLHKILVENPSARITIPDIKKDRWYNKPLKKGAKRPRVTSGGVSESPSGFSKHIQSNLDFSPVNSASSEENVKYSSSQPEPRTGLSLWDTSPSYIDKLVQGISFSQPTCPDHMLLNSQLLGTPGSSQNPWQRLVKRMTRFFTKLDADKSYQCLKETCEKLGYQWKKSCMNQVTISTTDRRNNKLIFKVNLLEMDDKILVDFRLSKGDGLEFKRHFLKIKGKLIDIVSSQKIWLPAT
Assay: Chk1 kinase assay: incorporation of γ-33P ATP into immobilized myelin basic protein
Type: biochemical
Settings: read-out: Chk1 IC50
Method in brief: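 Radiometric filter-free format: Chk1 10 nM, 10 μM ATP; Chk2 20 nM, 30 μM ATP; γ-33P ATP tracer; immobilized MBP substrate; Hepes pH 7.6, 10 mM MgCl2, 1 mM DTT; 1 h RT; 1% DMSO. Scintillation counting of washed plates. IC50/Ki from curve fit.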

[1] = Table 11, Chk1 only, class symbols A-D

IC50 (Table 11, Chk1 only)	IC50	SMILES	also measured
0.05 to 1 µM	–	CNC(=O)c1nc(-c2cccc(CNC3CCc4c(F)ccc(Br)c43)c2)cnc1N (stereo not drawn) [Example 484, 3-amino-6-(3-{[(7-bromo-4-fluoro-2,3-dihydro-1H-inden-1-yl)amino]methyl}phenyl)-N-methylpyrazine-2-carboxamide]	–
–	< 0.05 µM	CNC(=O)c1nc(-c2cccc(C(=O)NCc3ccc(Cl)cc3F)c2)cnc1N [Example 275, 3-amino-6-[3-({[(4-chloro-2-fluorophenyl)methyl]amino}carbonyl)phenyl]-N-methylpyrazine-2-carboxamide]	–
≥ 10 µM	–	CCn1nc(-c2nc(-c3cccc(C(=O)N[C@H]4CCc5ccccc54)c3)cnc2N)nc1[C@@H]1CCCN(C(=O)OCc2ccccc2)C1 [Example 749, phenylmethyl (3R)-3-{3-[3-amino-6-(3-{[(1S)-2,3-dihydro-1H-inden-1-ylamino]carbonyl}phenyl)pyrazin-2-yl]-1-ethyl-1H-1,2,4-triazol-5-yl}piperidine-1-carboxylate]	–
–	–	Nc1ncc(-c2cccc(C(=O)NCc3cc(F)c(F)c(F)c3)c2)nc1C(=O)N[C@H]1CCNC1 [Example 814, 3-amino-N-[(3S)-pyrrolidin-3-yl]-6-[3-({[(3,4,5-trifluorophenyl)methyl]amino}carbonyl)phenyl]pyrazine-2-carboxamide]	IC50 [1]: < 0.05 µM
–	0.05 to 1 µM	CCc1ccc(CNC(=O)c2cccc(-c3cnc(N)c(C(=O)NC)n3)c2)cc1 [Example 413, 3-amino-6-[3-({[(4-ethylphenyl)methyl]amino}carbonyl)phenyl]-N-methylpyrazine-2-carboxamide]	–
–	1 to 10 µM	CNC(=O)c1nc(-c2cccc(OCCN3CCC(CCO)CC3)c2)cnc1N [Example 176, 3-amino-6-[3-({2-[4-(2-hydroxyethyl)piperidin-1-yl]ethyl}oxy)phenyl]-N-methylpyrazine-2-carboxamide]	–
–	0.05 to 1 µM	CCN(CCOc1cccc(-c2cnc(N)c(C(=O)NC)n2)c1)Cc1ccccc1 [Example 178, 3-amino-6-[3-({2-[ethyl(phenylmethyl)amino]ethyl}oxy)phenyl]-N-methylpyrazine-2-carboxamide]	–
–	< 0.05 µM	CNC(=O)c1nc(-c2cccc(C(=O)NNc3ccccc3)c2)cnc1N [Example 328, 3-amino-N-methyl-6-{3-[(2-phenylhydrazino)carbonyl]phenyl}pyrazine-2-carboxamide]	–
–	1 to 10 µM	CNC(=O)c1nc(-c2cccc(C(N)=O)c2)cnc1N [Example 85, 3-amino-6-[3-(aminocarbonyl)phenyl]-N-methylpyrazine-2-carboxamide]	–
–	0.05 to 1 µM	CCCCc1ccc(CNC(=O)c2cccc(-c3cnc(N)c(C(=O)NC)n3)c2)cc1 [Example 375, 3-amino-6-[3-({[(4-butylphenyl)methyl]amino}carbonyl)phenyl]-N-methylpyrazine-2-carboxamide]	–
–	0.05 to 1 µM	CNC(=O)c1nc(-c2cccc(C(=O)NCc3ccc(C)c(Cl)c3)c2)cnc1N [Example 303, 3-amino-6-[3-({[(3-chloro-4-methylphenyl)methyl]amino}carbonyl)phenyl]-N-methylpyrazine-2-carboxamide]	–
–	1 to 10 µM	CNC(=O)c1nc(-c2cccc(NC(=O)OCC3c4ccccc4-c4ccccc43)c2)cnc1N [Example 317, 9H-fluoren-9-ylmethyl (3-{5-amino-6-[(methylamino)carbonyl]pyrazin-2-yl}phenyl)carbamate]	–
–	0.05 to 1 µM	CNC(=O)c1nc(-c2cccc(OCCN3CCN(C)CC3)c2)cnc1N [Example 192, 3-amino-N-methyl-6-(3-{[2-(4-methylpiperazin-1-yl)ethyl]oxy}phenyl)pyrazine-2-carboxamide]	–
1 to 10 µM	–	Nc1ncc(-c2cccc(CO)c2)nc1-c1nnc(Cc2ccccc2)[nH]1 [Example 552, (3-{5-amino-6-[5-(phenylmethyl)-4H-1,2,4-triazol-3-yl]pyrazin-2-yl}phenyl)methanol]	–
–	1 to 10 µM	CNC(=O)c1nc(-c2cccc(C(=O)N3CCN(C)CC3)c2)cnc1N [Example 93, 3-amino-N-methyl-6-{3-[(4-methylpiperazin-1-yl)carbonyl]phenyl}pyrazine-2-carboxamide]	–
< 0.05 µM	–	CNC(=O)c1nc(-c2cccc(CNC3CCc4cc(-c5cc(C)cs5)ccc43)c2)cnc1N (stereo not drawn) [Example 496, 3-amino-N-methyl-6-[3-({[5-(4-methyl-2-thienyl)-2,3-dihydro-1H-inden-1-yl]amino}methyl)phenyl]pyrazine-2-carboxamide]	–
0.05 to 1 µM	–	CNC(=O)c1nc(-c2cccc(CN[C@H]3CCN(Cc4ccccc4)C3)c2)cnc1N [Example 437, 3-amino-N-methyl-6-[3-({[(3S)-1-(phenylmethyl)pyrrolidin-3-yl]amino}methyl)phenyl]pyrazine-2-carboxamide]	–

IC50 (Table 11, Chk1 only)	IC50	SMILES	also measured
0.05 to 1 µM	–	CNC(=O)c1nc(-c2cccc(CNC3CCc4cc(-c5ccc(C)cc5)ccc43)c2)cnc1N (stereo not drawn) [Example 510, 3-amino-N-methyl-6-[3-({[5-(4-methylphenyl)-2,3-dihydro-1H-inden-1-yl]amino}methyl)phenyl]pyrazine-2-carboxamide]	–
–	0.05 to 1 µM	CNC(=O)c1nc(-c2cccc(C(=O)NCc3ccncc3)c2)cnc1N [Example 123, 3-amino-N-methyl-6-(3-{[(pyridin-4-ylmethyl)amino]carbonyl}phenyl)pyrazine-2-carboxamide]	–
–	0.05 to 1 µM	CNC(=O)c1nc(-c2cccc(CNC(=O)c3ccc4c(c3)OCO4)c2)cnc1N [Example 352, 3-amino-6-(3-{[(1,3-benzodioxol-5-ylcarbonyl)amino]methyl}phenyl)-N-methylpyrazine-2-carboxamide]	–
< 0.05 µM	–	CNC(=O)c1nc(-c2cccc(CNC3CCc4cc(-c5ccsc5)ccc43)c2)cnc1N (stereo not drawn) [Example 481, 3-amino-N-methyl-6-[3-({[5-(3-thienyl)-2,3-dihydro-1H-inden-1-yl]amino}methyl)phenyl]pyrazine-2-carboxamide]	–
< 0.05 µM	–	CNC(=O)c1nc(-c2cccc(CNCc3ccc(-c4ccco4)cc3F)c2)cnc1N [Example 451, 3-amino-6-[3-({[(2-fluoro-4-furan-2-ylphenyl)methyl]amino}methyl)phenyl]-N-methylpyrazine-2-carboxamide]	–
–	–	Nc1ncc(-c2cccc(C(=O)NCc3ccc(-c4ccccc4)cc3)c2)nc1C(=O)N[C@H]1CCCNC1 [Example 844, 3-amino-6-(3-{[(biphenyl-4-ylmethyl)amino]carbonyl}phenyl)-N-[(3S)-piperidin-3-yl]pyrazine-2-carboxamide]	IC50 [1]: < 0.05 µM
–	–	Nc1ncc(-c2cccc(C(=O)NC[C@@H]3CCNC3)c2)nc1C(=O)N[C@H]1CCCNC1 [Example 875, 3-amino-N-[(3S)-piperidin-3-yl]-6-[3-({[(3R)-pyrrolidin-3-ylmethyl]amino}carbonyl)phenyl]pyrazine-2-carboxamide]	IC50 [1]: < 0.05 µM
–	1 to 10 µM	CNC(=O)c1nc(-c2cccc(C(=O)NCc3cccc(F)c3F)c2)cnc1N [Example 215, 3-amino-6-[3-({[(2,3-difluorophenyl)methyl]amino}carbonyl)phenyl]-N-methylpyrazine-2-carboxamide]	–
–	0.05 to 1 µM	CNC(=O)c1nc(-c2ccc(OC)c(C(=O)NCc3ccccc3)c2)cnc1N [Example 348, 3-amino-N-methyl-6-(4-(methyloxy)-3-{[(phenylmethyl)amino]carbonyl}phenyl)pyrazine-2-carboxamide]	–
–	≥ 10 µM	CNC(=O)c1nc(-c2cccc(C(=O)O)c2)cnc1N [Example 92, 3-{5-amino-6-[(methylamino)carbonyl]pyrazin-2-yl}benzoic acid]	–
0.05 to 1 µM	–	CNC(=O)c1nc(-c2cccc(CNC3CCc4cc(F)c(F)cc43)c2)cnc1N (stereo not drawn) [Example 476, 3-amino-6-(3-{[(5,6-difluoro-2,3-dihydro-1H-inden-1-yl)amino]methyl}phenyl)-N-methylpyrazine-2-carboxamide]	–
–	< 0.05 µM	CNC(=O)c1nc(-c2cccc(C(=O)NCc3ccc4c(c3)OCCO4)c2)cnc1N [Example 205, 3-amino-6-(3-{[(2,3-dihydro-1,4-benzodioxin-6-ylmethyl)amino]carbonyl}phenyl)-N-methylpyrazine-2-carboxamide]	–
–	–	COc1cccc(CNC(=O)c2cccc(-c3cnc(N)c(C(=O)N[C@H]4CCCNC4)n3)c2)c1 [Example 1039, 3-amino-6-[3-({[(3-methoxyphenyl)methyl]amino}carbonyl)phenyl]-N-[(3S)-piperidin-3-yl]pyrazine-2-carboxamide]	IC50 [1]: < 0.05 µM
0.05 to 1 µM	–	Nc1ncc(-c2cccc(C(=O)NCCc3ccccc3)c2)nc1C(=O)N[C@H]1CCNC1 [Example 715, 3-amino-6-(3-{[(2-phenylethyl)amino]carbonyl}phenyl)-N-[(3S)-pyrrolidin-3-yl]pyrazine-2-carboxamide]	–
–	0.05 to 1 µM	CNC(=O)c1nc(-c2cccc(C(=O)NC3CCN(Cc4ccccc4)CC3)c2)cnc1N [Example 118, 3-amino-N-methyl-6-[3-({[1-(phenylmethyl)piperidin-4-yl]amino}carbonyl)phenyl]pyrazine-2-carboxamide]	–
–	0.05 to 1 µM	CNC(=O)c1nc(-c2cccc(C(=O)NCC3CCN(C(=O)OC(C)(C)C)C3)c2)cnc1N (stereo not drawn) [Example 364, 1,1-dimethylethyl 3-({[(3-{5-amino-6-[(methylamino)carbonyl]pyrazin-2-yl}phenyl)carbonyl]amino}methyl)pyrrolidine-1-carboxylate]	–

Source: US7704995B2 (Exelixis, Inc., priority 2003, dated 2010)
